Test results as given in BindingDB's records for doi:10.1021/acs.biochem.6b00733 (Utrecht University, 2016).

Target: T1, Nicotinamide N-methyltransferase (Homo sapiens, UniProt P40261)
T1 sequence (P40261 whole entry): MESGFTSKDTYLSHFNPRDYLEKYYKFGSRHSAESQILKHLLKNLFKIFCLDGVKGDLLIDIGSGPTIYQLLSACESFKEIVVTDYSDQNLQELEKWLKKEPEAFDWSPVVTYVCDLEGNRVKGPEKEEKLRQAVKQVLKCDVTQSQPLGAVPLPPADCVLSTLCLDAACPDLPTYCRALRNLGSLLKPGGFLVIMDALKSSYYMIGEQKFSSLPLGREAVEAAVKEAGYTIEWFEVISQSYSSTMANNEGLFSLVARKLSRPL
Test: NNMT Enzymatic Activity Assay
Conditions: pH 8.6; 37 °C
Procedure: Enzyme activity assays were performed as previously described with NNMT (16.25 ug/mL, 550 nM) in 50 mM Tris buffer (pH 8.6) containing 1 mM DTT (all final concentrations). The enzyme was incubated with the substrate pyridine compound for 5 min at 37 °C using a heat block before the reaction was initiated by addition of AdoMet (for substrates that were not soluble in water, stocksolutions were prepared in DMSO and diluted to a final DMSO concentration of <5% in the assay mixture). […] For these screens, the final reagent concentrations were 100 uM AdoMet and 2.0 mM substrate and a series of time points were initially investigated (5, 15, 30, and 60 min). At each time point, 15 uL aliquots of the reaction mixture were taken and added to 70 uL of acetonitrile, which served to quench the reaction by causing precipitation of the enzyme.

SMILES	Ki [mM]
c1ccc2c(c1)CCNC2 [1,2,3,4-tetrahydroisoquinoline]	4.7
NC(=O)c1cnc2ccccc2c1 [quinoline 3-carboxamide]	9.7
NC(=S)c1cccnc1 [thionicotinamide]	6.6
